Experimental data: patent publication US20230159620A1, “COMPOSITIONS AND METHODS OF TREATMENT FOR VASCULAR DISEASES AND THROMBOSIS” (Washington University, priority 2021, published 2023)

System: FGF receptors
Experiment: Bulk RNA sequencing of VSMCs, Fgfr transcripts
Format: cell-based, mouse
Conditions: RNAseq, normalized to BSA
Protocol: Plates were UV sterilized before adding cells. Primary VSMCs were collected, resuspended in DMEM/F12 media containing 10% FBS, plated on precoated, blocked wells, and incubated for 8 hr to ensure complete cell adhesion. Media was replaced with fresh DMEM/F12 containing 1% FBS and incubated for 12 hr before collection. RNA was collected using RNeasy® Mini Kit (#74106, Qiagen). Atherosclerotic aortic arches (including the aortic root, arch, and the proximal regions of its branching vessels) from mice were used as the source of RNA for the later RNAseq experiment. […]
Samples were prepared according to the library kit manufacturer's protocol, indexed, pooled, and sequenced on an Illumina HiSeq. Basecalls and demultiplexing were performed with Illumina's bcl2fastq software and a custom python demultiplexing program with a maximum of one mismatch in the indexing read. RNA-seq reads were then aligned to the Ensembl release 76 primary assembly with STAR version 2.5.1a. Gene counts were derived from the number of uniquely aligned unambiguous reads by Subread:featureCount version 1.4.6-p5 2). […] Sequencing performance was assessed for the total number of aligned reads, the total number of uniquely aligned reads, and the features detected. The ribosomal fraction, known junction saturation, and read distribution over known gene models were quantified with RSeQC version 2.6.2. […]

## SVEP1: recombinant murine SVEP1 extracellular matrix protein with Myc and poly-histidine tag, expressed in 293F cells
  expression of FGF receptors: increases expression of FGF receptors
